Source: the NIST ThermoML archive (doi:10.1021/je600580r)
± gives the expanded uncertainty stated by the source.

Assays:
[1] = Crystal; DTA
[2] = Molar enthalpy of transition or fusion; conditions: Crystal; DSC
[3] = molar enthalpy of vaporization or sublimation; conditions: Liquid, DSC

CCNc1nc(NC(C)C)nc(SC)n1 [2-methylthio-4-ethylamino-6-isopropylamino-1,3,5-triazine]
Normal melting temperature [1]: 83.6 ± 0.5 °C | Molar enthalpy of transition or fusion [2]: 6.21 ± 0.956 kcal/mol | molar enthalpy ([3]; 466 K): 21.7 ± 1.91 kcal/mol

CCNc1nc(NCC)nc(SC)n1 [2-methylthio-4,6-bis(ethylamino)-1,3,5-triazine]
Normal melting temperature [1]: 77.4 ± 0.5 °C | Molar enthalpy of transition or fusion [2]: 5.74 ± 0.478 kcal/mol | molar enthalpy ([3]; 461 K): 21 ± 1.91 kcal/mol

CCNc1nc(NC(C)(C)C)nc(SC)n1
Normal melting temperature [1]: 99.2 ± 0.5 °C | Molar enthalpy of transition or fusion [2]: 5.02 ± 0.956 kcal/mol | molar enthalpy ([3]; 467 K): 20.8 ± 2.39 kcal/mol
